Columns and labels:
[1] = molecular target: T1, Recombinant human LOXL2 (lysyl oxidase like 2) (Homo sapiens, UniProt Q9Y4K0); assay: LOXL2 inhibition assay, fluorometric (cadaverine / HRP / Amplex Red); assay type: biochemical; conditions: recombinant human LOXL2 130 nM; 30 min preincubation at 37° C.; 2.5 mM cadaverine; read-out: Activity Range LOXL2
T1 construct: purchased R&D systems
T1 sequence (Q9Y4K0 26-774): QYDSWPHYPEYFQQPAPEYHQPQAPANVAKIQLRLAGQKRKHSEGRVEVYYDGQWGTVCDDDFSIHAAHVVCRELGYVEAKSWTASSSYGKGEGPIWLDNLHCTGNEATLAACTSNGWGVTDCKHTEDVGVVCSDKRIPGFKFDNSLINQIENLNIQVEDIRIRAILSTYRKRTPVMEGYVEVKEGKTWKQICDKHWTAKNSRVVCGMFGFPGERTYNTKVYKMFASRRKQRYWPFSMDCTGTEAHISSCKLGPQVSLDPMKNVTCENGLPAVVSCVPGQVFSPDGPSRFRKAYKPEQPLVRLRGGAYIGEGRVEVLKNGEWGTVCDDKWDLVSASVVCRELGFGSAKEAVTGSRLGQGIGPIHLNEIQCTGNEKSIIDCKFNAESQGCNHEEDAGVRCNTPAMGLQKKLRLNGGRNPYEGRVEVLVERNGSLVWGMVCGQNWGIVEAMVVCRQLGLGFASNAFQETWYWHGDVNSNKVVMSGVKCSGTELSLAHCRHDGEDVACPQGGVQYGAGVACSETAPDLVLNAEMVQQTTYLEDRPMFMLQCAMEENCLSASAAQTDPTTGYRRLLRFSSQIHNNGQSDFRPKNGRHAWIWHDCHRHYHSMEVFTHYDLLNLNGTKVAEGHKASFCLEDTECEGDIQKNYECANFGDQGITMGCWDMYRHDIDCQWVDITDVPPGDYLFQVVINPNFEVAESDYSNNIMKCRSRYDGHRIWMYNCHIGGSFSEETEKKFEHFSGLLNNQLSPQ
Experimental: The ability of compounds to inhibit one or more of the lysyl oxidases LOXL2 and/or LOXL3 was determined using a fluorometric assay. This assay measures the activity of lysyl oxidases by coupling the reaction with horseradish peroxidase-catalyzed […]. The activity assay protocol uses cadaverine as substrate that releases hydrogen peroxide upon transformation by the specific LOX family enzyme present in the sample. Hydrogen peroxide is in turn detected using a red fluorescence substrate for HRP-coupled reactions (Amplex Red Enzyme Assays, Thermo Scientific Fisher). This leads to increase in fluorescence that can be easily detected at Ex/Em=540/590 nm in a fluorescence microplate reader.
Recombinant human LOXL2 (lysyl oxidase like 2) and recombinant human LOXL3 (lysyl oxidase like 3) were purchased from R&D systems and assays were performed in 1.2 M urea, 50 mM sodium borate buffer pH 8.0, and 10 mM CaCl.
5 μl of freshly prepared reaction buffer were delivered to reaction wells. Compounds were resuspended in 100% DMSO at 10 mM and delivered into buffer using acoustic technology (Echo550; nanoliter range). A 3× solution of LOXL2 or LOXL3 in reaction buffer was prepared (“enzyme solution”) and 5 μL of enzyme solution was added into the reaction wells. Buffer only was added to column 1 for no protein control. Reactions were incubated for 30 minutes at 37° C. A 3× mixture of cadaverine, Amplex Red, and HRP (“Substrate/Detection Mix) was prepared and subsequently 5 μL of the mixture added to each reaction well. Progress of reactions was monitored for 60 minutes at 37° C. using Clariostar plate reader (ex 530-12, ems 600-40). For all activity assays, pan-LOX inhibitor CCT365623 (Tang et al, 2017) and LOXL2/LOXL3 inhibitor PAT-1251 (PharmaKea) were included as standards.
For the data analysis, the slope of the linear portion of the progress curve was calculated using Clariostar software. Typical analysis interval was between 8-30 min, but varied between experiments. The background-subtracted signals (No protein wells are considered as background) were converted to % activity relative to DMSO controls. Data was analyzed using GraphPad Prism 4 with “sigmoidal dose-response (variable slope)”; 4 parameters with Hill Slope. Constraints: Bottom=Constant equal to 0. Top=Must be less than 120.

[2] = molecular target: T2, Bovine lysyl oxidase (LOX) (Bos taurus, UniProt P33072); assay: LOX inhibition assay, fluorometric (cadaverine / HRP / Amplex Red); assay type: biochemical; conditions: LOX extracted from bovine tendon; 30 min preincubation at 37° C.; 5 mM cadaverine; read-out: Activity Range LOX
T2 construct: from tissue; host or cells: adult bovine tendon
T2 sequence (P33072 170-418): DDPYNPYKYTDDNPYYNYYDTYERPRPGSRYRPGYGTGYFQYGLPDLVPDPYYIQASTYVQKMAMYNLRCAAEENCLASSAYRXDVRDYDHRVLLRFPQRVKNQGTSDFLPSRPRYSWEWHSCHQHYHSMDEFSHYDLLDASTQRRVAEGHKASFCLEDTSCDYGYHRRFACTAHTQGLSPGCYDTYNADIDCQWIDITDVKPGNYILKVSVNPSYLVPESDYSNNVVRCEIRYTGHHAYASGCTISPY
Experimental: The ability of compounds to inhibit prototypic LOX was determined using a fluorometric assay. This assay measures the activity of lysyl oxidases by coupling the reaction with horseradish peroxidase-catalyzed […]. The activity assay protocol uses cadaverine as substrate that releases hydrogen peroxide upon transformation by prototypic LOX enzyme present in the sample. Hydrogen peroxide was in turn detected using a red fluorescence substrate for HRP-coupled reactions (Amplex Red Enzyme Assays, Thermo Scientific Fisher). This lead to an increase in fluorescence that can be easily detected at Ex/Em=540/590 nm in a fluorescence microplate
Bovine lysyl oxidase (LOX) was extracted by adapting the methodology from [Kagan et al. 1979 and Borel et al. 2001.] from bovine tendon: Frozen adult bovine tendon was placed in room temperature water to defrost, and then membranes were removed and the remaining tissue cut into 1 cm pieces. The material was first passed through a course mesh meat grinder, and this mince was passed through a fine mesh grinder. The mince was homogenized in 10 v/w of buffer (16 mM sodium phosphate buffer pH 7.8, 400 mM NaCl) using a Waring blender. The homogenate was centrifuged at 15,000×g for 15 min at 4° C. After centrifugation, the supernatant was discarded and the pellets resuspended in 10 volumes of the same buffer. The mixture was blended again and centrifuged with the same settings. This time the pellets were blended in 3 volumes of extraction buffer (16 mM sodium phosphate buffer pH 7.8) and left to incubate at 4° C. for 2 h. After this time, the slurry was centrifuged with the same settings as described above. The supernatant was used in an ultrafiltration step to remove large proteins by size exclusion through a 30 kDalton filter (EMD Millipore). The filtrate was mixed with DEAE Sephadex (GE Healthcare), or passed over a MonoQ FPLC column. After two washes, one in 16 mM sodium phosphate buffer pH 7.8, 380 mM NaCl, and another in 16 mM sodium phosphate buffer pH 7.8, the proteins were eluted with 16 mM sodium phosphate pH 7.8, 10 μM CuSO4, and 4 M urea. Fractions containing Lox activity were collected and stored frozen at −70° C.
Final concentration in the LOX assay is shown in Table 6 below and performed in a total volume of […].
7 μl of freshly prepared reaction buffer were delivered to reaction wells. Compounds were resuspended in 100% DMSO at 10 mM and delivered into buffer using acoustic technology (Echo550; nanoliter range). A 2.85× solution of LOX protein in reaction buffer was prepared (“LOX solution”) and 7 μl of LOX solution was added into the reaction wells. Buffer only was added to column 1 for no protein control. Reactions were incubated for 30 minutes at 37° C. A 3.33× mixture of cadaverine, Amplex Red, and HRP (“Substrate/Detection Mix) was prepared and subsequently 6 μL of the mixture was added to each reaction well. Progress of reactions was monitored for 120 minutes at 37° C. using Clariostar plate reader (ex530-12, ems 600-40). For all activity assays, pan-LOX inhibitor CCT365623 (Tang et al, 2017) and LOXL2/LOXL3 inhibitor PAT-1251 (PharmaKea) were included as standards.
The slope of the linear portion of the progress curve was calculated using Clariostar software. Typical analysis interval was between 20-50 min, but varied between experiments. The background subtracted signals (No protein wells were considered as background) were converted to % activity relative to DMSO controls. Data was analyzed using GraphPad Prism 4 with “sigmoidal dose-response (variable slope)”; 4 parameters with Hill Slope. Constraints: Bottom=Constant equal to 0. Top=Must be less than 120.

SMILES	IC50 [1]	IC50 [2]
CS(=O)(=O)N1C[C@@H](c2ccccc2)C[C@H]1CS(=O)(=O)c1ccc(CN)cc1 (racemic) [Example 26, cis-(4-(((1-(Methylsulfonyl)-4-phenylpyrrolidin-2-yl)methyl)sulfonyl)phenyl)methanamine 2,2,2-trifluoroacetate]	≤ 500 nM	1000 to 30000 nM
CS(=O)(=O)N1C[C@@H](c2ccccc2)C[C@H]1CS(=O)(=O)c1cccc(CN)c1 (racemic) [Example 27, cis-(3-(((1-(Methylsulfonyl)-4-phenylpyrrolidin-2-yl)methyl)sulfonyl)phenyl)methanamine 2,2,2-trifluoroacetate]	≤ 500 nM	1000 to 30000 nM
NCc1ccc(S(=O)(=O)C[C@@H]2C[C@H](c3ccccc3F)CN2S(=O)(=O)N2CCOCC2)s1 (racemic) [Example 207, cis-(5-(((4-(2-Fluorophenyl)-1-(morpholinosulfonyl)pyrrolidin-2-yl)methyl)sulfonyl)thiophen-2-yl)methanamine 2,2,2-trifluoroacetate]	≤ 500 nM	≤ 500 nM
NCc1ccnc(S(=O)(=O)C[C@@H]2C[C@H](C3CCCCC3)CN(S(=O)(=O)N3CCS(=O)(=O)CC3)C2)c1 (relative stereo) [Example 234, cis-4-((3-(((4-(Aminomethyl)pyridin-2-yl)sulfonyl)methyl)-5-cyclohexylpiperidin-1-yl)sulfonyl)thiomorpholine 1,1-dioxide 2,2,2-trifluoroacetate]	≤ 500 nM	
NCc1ccnc(S(=O)(=O)C[C@H]2C[C@H](C3CCCCC3)CN(S(=O)(=O)N3CCS(=O)(=O)CC3)C2)c1 (relative stereo) [Example 234T, trans-4-((3-(((4-(Aminomethyl)pyridin-2-yl)sulfonyl)methyl)-5-cyclohexylpiperidin-1-yl)sulfonyl)thiomorpholine 1,1-dioxide 2,2,2-trifluoroacetate]	≤ 500 nM	
NCc1ccnc(OC[C@H]2C[C@H](C3CCCCC3)CN(S(=O)(=O)N3CCOCC3)C2)c1 [Example 231T, trans-(2-(((3S,5R)-5-cyclohexyl-1-(morpholinosulfonyl)piperidin-3-yl)methoxy)pyridin-4-yl)methanamine]	≤ 500 nM	

Second part, the compound after the results:

IC50 [1]	IC50 [2]	SMILES
≤ 500 nM	1000 to 30000 nM	NCc1ccnc(S(=O)(=O)C[C@@H]2C[C@H](c3ccccc3F)CN2S(=O)(=O)N2CCOCC2)c1 (racemic) [Example 203, cis-(2-(((4-(2-fluorophenyl)-1-(morpholinosulfonyl)pyrrolidin-2-yl)methyl)sulfonyl)pyridin-4-yl)methanamine 2,2,2-trifluoroacetate]
≤ 500 nM	1000 to 30000 nM	NCc1ccnc(S(=O)(=O)C[C@@H]2C[C@H](c3ccc(F)cc3)CN2S(=O)(=O)N2CCOCC2)c1 (racemic) [Example 204, cis-(2-(((4-(4-fluorophenyl)-1-(morpholinosulfony1)pyrrolidin-2-yl)methyl)sulfonyl)pyridin-4-yl)methanamine 2,2,2-trifluoroacetate]
≤ 500 nM	1000 to 30000 nM	NCc1ccnc(S(=O)(=O)C[C@@H]2C[C@H](c3ccc(F)cc3)CN2S(=O)(=O)N2CCS(=O)(=O)CC2)c1 (racemic) [Example 206, cis-4-((2-(((4-(Aminomethyl)pyridin-2-yl)sulfonyl)methyl)-4-(4-fluorophenyl)pyrrolidin-1-yl)sulfonyl)thiomorpholine 1,1-dioxide 2,2,2-trifluoroacetate]
≤ 500 nM	≤ 500 nM	NCc1ccc(S(=O)(=O)C[C@@H]2C[C@H](c3ccc(F)cc3)CN2S(=O)(=O)N2CCOCC2)s1 (racemic) [Example 208, cis-(5-(((4-(4-Fluorophenyl)-1-(morpholinosulfonyl)pyrrolidin-2-yl)methyl)sulfonyl)thiophen-2-yl)methanamine 2,2,2-trifluoroacetate]
≤ 500 nM	1000 to 30000 nM	NCc1ccc(S(=O)(=O)C[C@@H]2C[C@H](c3ccc(F)cc3)CN2S(=O)(=O)N2CCS(=O)(=O)CC2)s1 (racemic) [Example 210, cis-4-((2-(((5-(Aminomethyl)thiophen-2-yl)sulfonyl)methyl)-4-(4-fluorophenyl)pyrrolidin-1-yl)sulfonyl)thiomorpholine 1,1-dioxide 2,2,2-trifluoroacetate]
≤ 500 nM	1000 to 30000 nM	NCc1ccnc(OC[C@@H]2C[C@H](c3ccc(F)cc3)CN2S(=O)(=O)N2CCOCC2)c1 (racemic) [Example 212, cis-(2-((4-(4-Fluorophenyl)-1-(morpholinosulfonyl)pyrrolidin-2-yl)methoxy)pyridin-4-yl)methanamine 2,2,2-trifluoroacetate]
